Reference: ChEMBL document CHEMBL4316592, “Synthesis of new derivatives of boehmeriasin A and their biological evaluation in liver cancer” (Eur J Med Chem, 2019)
Active and inactive are the calls of the source. The calls are words filed in the database; no cut-off is given here.

Assays:
[1] = biological target: RAC-alpha serine/threonine-protein kinase (Homo sapiens) (UniProt P31749); experiment: Inhibition of Akt phosphorylation in human Mahlavu cells at 1 uM after 72 hrs by Western blot analysis; type: cell-based
RAC-alpha serine/threonine-protein kinase (Homo sapiens), sequence (P31749 whole entry): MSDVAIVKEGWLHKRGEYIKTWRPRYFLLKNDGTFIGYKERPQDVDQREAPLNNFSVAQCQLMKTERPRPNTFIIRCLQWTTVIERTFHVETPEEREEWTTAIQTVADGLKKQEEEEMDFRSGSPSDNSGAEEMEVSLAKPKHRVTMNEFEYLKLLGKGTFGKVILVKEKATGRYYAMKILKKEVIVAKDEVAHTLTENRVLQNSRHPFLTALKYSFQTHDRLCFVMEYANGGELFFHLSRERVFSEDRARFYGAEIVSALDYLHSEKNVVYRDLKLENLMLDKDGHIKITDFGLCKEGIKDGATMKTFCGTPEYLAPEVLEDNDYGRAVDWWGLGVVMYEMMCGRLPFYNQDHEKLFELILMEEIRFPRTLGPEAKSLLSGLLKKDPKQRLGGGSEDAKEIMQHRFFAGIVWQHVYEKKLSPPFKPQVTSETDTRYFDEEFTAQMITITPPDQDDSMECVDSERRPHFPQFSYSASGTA

[2] = biological target: RAC-alpha serine/threonine-protein kinase (Homo sapiens) (UniProt P31749); experiment: Inhibition of AKT phosphorylation in human Mahlavu cells at 1 uM after 24 to 72 hrs by Western blot analysis; type: cell-based

inhibition [1]: Active | inhibition [2]: Active
SMILES: COc1ccc2c3c(c4cc(OC)c(OC)cc4c2c1)CN1CCCCC1C3O (racemic)
